The values that follow come from US20230114123A1, “METHOD OF STIMULATING ASYMMETRIC DIVISION OF SATELLITE STEM CELLS” (Ottawa Hospital Research Institute, priority 2017, published 2023).

The test system of one assay is EGFR signaling. The format is cell-based.
Another assay concerns satellite stem cells. The assay is described as follows: EDL myofiber culture, satellite stem cell divisions (Myf5-Cre/R26R-eYFP, wild type). To be noted: 42 h culture, Lapatinib 1 μM vs DMSO vehicle. Type of assay: cell-based, mouse. As to the method: EGFR Signaling Regulates Asymmetric Satellite Stem Cell Divisions. To assess the role of EGFR in asymmetric division, the inventors cultured satellite cells in myofibers isolated from Extensor digitorum longus (EDL) muscles from Myf5-Cre/R26R-eYFP mice and performed both loss-of-function and gain-of-function experiments. Isolated myofibers were first cultured for 42 h with and without treatment with the Lapatinib, a specific inhibitor of EGFR signaling.
EDL fiber Culture and siRNA Transfection. Myofiber culture was performed as described in Dumont, N. A., et al. “Dystrophin expression in muscle stem cells regulates their polarity and asymmetric division.” Nat. Med. (2015) 21:1455-63, which is incorporated herein by reference. Briefly, EDL were carefully dissected and incubated in DMEM with 2% L-glutamine, 4.5% glucose, and 110 mg/mL sodium pyruvate (Gibco) containing 0.2% collagenase I (Sigma) for 45 min. Myofibers were isolated using gentle trituration with a glass pipet. Myofibers were cultured for 36, 42, or 72 h in DMEM containing 20% FBS (Wisent), 1% chick embryo extract (MP Biomedicals), and 2.5 ng/ml bFGF (Cedarlane). For pharmacological inhibition, Lapatinib ditosylate (1 mM in DMSO; Santa
Cruz Biotechnology), PTP1b inhibitor CAS 765317-72-4 (10 mM in DMSO; Santa Cruz Biotechnologies) was added to the culture medium for a final concentration of 1 μM or 10 μM, respectively; equal dilution of DMSO was used as vehicle control.
Transfection of satellite cells on myofibers was performed using lipofectamine RNAimax (Life Technologies) and validated Smartpool siRNAs for EGFR, Aurka, or scramble (SCR) (Dharmacon). Two transfections were performed at 4 h and 16 h after isolation of the myofibers as described in Le Grand, et al. (2009) Wnt7a activates the planar cell polarity pathway to drive the symmetric expansion of satellite stem cells. Cell Stem Cell 4, pp 535-547, which is incorporated herein by reference. Knockdown efficiencies of the siRNA were validated in myoblasts by western blot and qRT-PCR.

The subject of another assay is satellite cell divisions. Description: FDB myofiber screening method validation (YFP(-) divisions). The format is cell-based, mouse. The note with it: control 62% (Wnt7a experiment), control 45% (EGF / PTP1b experiment). An excerpt:
EGFR pathway activators may be identified in a method of screening potential activators. The method includes visualizing isolated, cultured, and stained Flexor Digitorum Brevis (FDB) myofibers from Myf5-Cre/ROSA26-YFP mice in a plurality of Z-stack planes to create a projection image. Muscle satellite cells are identified in the projection image based on Pax7 expression. Of the identified muscle satellite cells: (i) satellite stem cells are identified based on the absence of YFP expression, and (ii) committed satellite progenitor cells are identified based on yellow fluorescence protein (YFP) expression. A potential EGFR pathway activator is administered to the FDB myofibers. The number of symmetric divisions of satellite myogenic cells, identified by the production of two YFP(+) satellite cells, are counted; the number of symmetric satellite stem cell divisions, identified by the production of two YFP(−) satellite cells, are counted; and the number of asymmetric satellite cell divisions, identified by the production of one YFP(+) and one YFP(−) satellite cell, are counted. The potential EGFR pathway activator is identified as an EGFR pathway activator when the percent of YFP(−) divisions that are asymmetric divisions is greater than the corresponding percent in a control sample. The expression “YFP(−) divisions” refers to all cell divisions where one of the daughter cells is YFP(−).
Identification of EGFR pathway activators. Flexor Digitorum brevis (FDB) fibers were isolated from Myf5-Cre/Rosa-YFP mice and digested in 0.25% Collagenase Type I (Sigma) in DMEM (Dulbecco's modified Eagle's medium; high glucose, L-glutamine with 110 mg/ml sodium pyruvate) for 2.5-3 h. Myofibers were dissociated using gentle trituration with a glass pipette.
Myofibers are cultured at 37° C., 5% CO2 for 42 h in myofiber culture media (DMEM supplemented with 20% FBS(Wisent), 1% Chicken Embryo extract (MP Biomediacals), 1% Penicillin/Streptomycin (Cederlane) and 2.5 ng/ml basic Fibroblast Growth Factor (Cedarlane).
Myofibers are first fixed in 2% Paraformaldehyde (PFA) for 5 mins. Myofibers are blocked for 1-2 h in 1% Bovine Serum Albumin, 0.5% TritonX-100, 5% HS and 0.01% Sodium Azide. Primary antibodies are applied in blocking solution for 2 h at room temperature or at 4° C. overnight. Myofibers are washed with PBS and stained with appropriate fluorescently labeled secondary antibodies (Alexa Fluor 488, 546) for 1 hat room temperature. Following washing with PBS, fiber nuclei are stained with DAPI for 5 min. The following antibodies are used: mouse anti-Pax7 (Developmental Studies Hybridoma Bank (DSHB)), chicken anti-GFP (cat. no. ab13970, Abcam).
Satellite cells are focused based on Channel 3 (DAPI) staining. Autofocus is performed by sampling seven (7) z-stacks taken at […] intervals for an extended depth of field of 85.3 μm.
Z-stack images were consolidated to create a projection image with all satellite cells in focus. Image acquisition of a projection image for analysis was created from seven (7) Z-stack images taken at 6.5 μm intervals, for an extended depth of field of 45.5 μm at 200 (Objective 20×) magnification. The projection direction was centered, where the median stacks fall within the center of each myofiber. […]
Potential satellite cells were first identified based on Channel 1 (Pax7) signal, and separated from other satellite cells based on intensity of fluorescence between cells. […]

With `CS(=O)(=O)CCNCc1ccc(-c2ccc3ncnc(Nc4ccc(OCc5cccc(F)c5)c(Cl)c4)c3c2)o1` [Lapatinib, reference compound], the “EGFR signaling at the concentration used in the screen” value in the assay with EGFR signaling is recorded as “completely abolishes EGFR signaling”. Moreover, in the assay on satellite stem cells (FIG. 1A), the “decrease in the rate of asymmetric divisions” value is 83%. Further, in the assay on satellite stem cells (FIG. 1B), the “increase in the number of satellite stem cells” value amounted to 71%.

B1: Wnt7a ligand: known activator of symmetric satellite cell divisions (protein, UniProt O00755 32-349, looked up)
Protein Wnt-7a: LGASIICNKIPGLAPRQRAICQSRPDAIIVIGEGSQMGLDECQFQFRNGRWNCSALGERTVFGKELKVGSREAAFTYAIIAAGVAHAITAACTQGNLSDCGCDKEKQGQYHRDEGWKWGGCSADIRYGIGFAKVFVDAREIKQNARTLMNLHNNEAGRKILEENMKLECKCHGVSGSCTTKTCWTTLPQFRELGYVLKDKYNEAVHVEPVRASRNKRPTFLKIKKPLSYRKPMDTDLVYIEKSPNYCEEDPVTGSVGTQGRACNKTAPQASGCDLMCCGRGYNTHQYARVWQCNCKFHWCCYVKCNTCSERTEMYTCK
For the molecule B1, in the assay with satellite cell divisions, the “percentage of YFP(-) divisions that were symmetric divisions” value came out at 78%.
